# Laboratory results reported in ChEMBL document CHEMBL5303711, “ECBD screening data for assay EOS300108” (2023).
# Structures can show the parent of a compound that is named as a salt. The source made the active and inactive calls. How the calls were made is not given here.
# Experiment: Cytotoxicity activity against human HepG2 cells assessed by CellTiter-Glo luminescent cell viability assay.
# Type: toxicity, cell-based
# Design: assay stage confirmatory assay, source tissue liver
# Conditions: HepG2 cells, read-out: IC50 relative
row,SMILES,CC50
1,CCS(=O)(=O)Nc1ccc2c(c1)/C(=C(/Nc1ccc(CN3CCCCC3)cc1)c1ccccc1)C(=O)N2 [HESPERADIN],0.2 µM (active)
2,O=C(Nc1ncc(-c2ccccc2)s1)c1ccccn1,2.3 µM (active)
3,CN[C@H](C(=O)N[C@H](C(=O)N(C)[C@H](/C=C(\C)C(=O)O)C(C)C)C(C)(C)C)C(C)(C)c1ccccc1 [TALTOBULIN],0.2 µM (active)
4,O=C(NCCN1CCCC1)C1CCN(c2nn3cc(-c4ccc(F)cc4)nc3s2)CC1,2.7 µM (active)
5,CN(C)c1nc(Nc2ccc(O)cc2)nc2ccccc12,9.7 µM (active)
6,COc1cc(Nc2cnc(C#N)c(O[C@H](C)CN(C)C)n2)ncc1-c1cnn(C)c1,10.4 µM (active)
7,COc1cccc(NC(=O)N2CCN(c3ccnc(N4CCCCC4)n3)CC2)c1,11.5 µM (active)
8,O=C(Nc1cccnc1)N1CCC(Cc2cccc(Oc3ccc(C(F)(F)F)cn3)c2)CC1,12.7 µM (active)
9,c1ccc(-n2ccc(CNc3ncnc4c3ncn4C3CC3)n2)cc1,9.8 µM (active)
10,CC(C)N(CCCNC(=O)Nc1ccc(C(C)(C)C)cc1)C[C@H]1O[C@@H](n2cc(Br)c3c(N)ncnc32)[C@H](O)[C@@H]1O,10.1 µM (active)
11,COc1ccc(-c2ccc(CNCCCN3CCOCC3)o2)cc1Cl,12.7 µM (inactive)
12,CC(C)CCn1c(SCC(=O)NCCN(C(C)C)C(C)C)nc2ccccc2c1=O,12.5 µM (active)
13,C[C@H]1CN(C)c2ccccc2N(Cc2cc3ccccc3c(=O)[nH]2)C1,16.9 µM (inactive)
14,Cc1cccc(OC[C@@H](O)CN2CCC(C(=O)N3CCc4ccccc43)CC2)c1,11.3 µM (active)
15,O=C(NCCCN1CCC2(CC1)OCc1ccccc12)[C@H]1CCCN1Cc1ccccc1,10.7 µM (active)
16,Cc1ccc(NC(=O)Nc2ccc(Cl)cc2)cc1NS(C)(=O)=O,3.6 µM (active)
17,CN1C(=O)Cc2cc(S(=O)(=O)Nc3cccc4cccnc34)ccc21,6.9 µM (active)
18,Nc1nc2nn[nH]c2c(=O)[nH]1 [8-AZAGUANINE],7.5 µM (active)
19,Cc1ccc(Cl)cc1N1CCN(c2cc([C@H]3C[C@@H](O)C3)ncn2)CC1,9.5 µM (active)
20,Cc1cc(C)cc(NC(=O)N(C)CCc2scnc2C)c1,50 µM (inactive)
21,CCN(C(=O)c1ccc(-n2ccnc2)nc1)S(=O)(=O)c1ccc(C)cc1,11.7 µM (inactive)
22,COc1ccc(OC2CCN(CCC(=O)Nc3cccc(F)c3)CC2)cc1,14.8 µM (inactive)
23,Cc1ccc(-c2cn3nc(N4CCC(C(=O)NCCCN5CCOCC5)CC4)sc3n2)cc1,5.1 µM (active)

row,SMILES,CC50
1,CCOc1ccc(S(=O)(=O)Nc2ccc3c(c2)N(C(C)=O)CCC3)cc1,6.4 µM (active)
2,CCc1ccc(-c2cc3c(=O)n(CC(=O)NCCCN4CCN(CC)CC4)nc(C)n3n2)cc1,25.5 µM (inactive)
3,C[C@@H](c1ccccc1F)N(Cn1ncc(Cl)c(Cl)c1=O)C1CC1,11.4 µM (active)
4,CC(C)(C)N1C(=O)C(Nc2ccc(N3CCCCC3)cc2)=C(c2ccccc2)S1(=O)=O,4.9 µM (active)
5,N#Cc1ccc(Cn2cncc2CN2CCN(c3cccc(Cl)c3)C(=O)C2)cc1 [L-778123],1.1 µM (active)
6,O=C(CCCCCn1sc2ccccc2c1=O)Nc1ccc2c(c1)OCO2,3.5 µM (active)
7,O=C(NCCN1CCC(n2c(=O)[nH]c3ccccc32)CC1)c1cc2cc(F)ccc2[nH]1,6.4 µM (active)
8,NNc1ncnc2ccc(Br)cc12,2.4 µM (active)
9,O=S(=O)(C[C@H]1CCOC1)NC1CCN(Cc2ccc(Cl)cc2)CC1,12.9 µM (active)
10,CNC(=O)c1nnn(-c2ccc3ncccc3c2)c1C,2.2 µM (active)
11,COc1cc(-c2nn(CCN3CCC(N(C)C)CC3)c3ncnc(N)c23)ccc1NC(=O)OC(C)(C)C,2.1 µM (active)
12,c1ccc(-c2nc3n(n2)Cc2ccccc2-3)cc1,2.7 µM (active)
13,N#Cc1ccc(NC(=O)Cn2c(=O)ccn(Cc3ccccc3)c2=O)cc1,13.9 µM (inactive)
14,Cc1ccc(NC(=O)c2ccc(Cl)s2)cc1S(=O)(=O)N1CCOCC1,4.7 µM (active)
15,COc1ccc(-c2cc3c(C)nc(N)nc3n([C@H]3CC[C@H](OCCO)CC3)c2=O)cn1 [PF-04691502],0.6 µM (active)
16,CCCCN(CC)CCCNC(=O)c1cc2c(=O)n(C)c3ccccc3c2n1C,11.8 µM (active)
17,CN(CC(=O)N(Cc1ccc(C2CCCCC2)cc1)c1ccc(C(=O)O)cc1)S(=O)(=O)c1c(F)c(F)c(F)c(F)c1F,3.4 µM (active)
18,CC(C)COCC(O)CN1CCCN(c2ccc(NC(=O)COc3ccc(Cl)cc3)cn2)CC1 (stereo not given),5.8 µM (active)
19,CCCn1c(NC(=O)c2cccc(S(=O)(=O)N3CCN(C(C)=O)CC3)c2)nc2ccccc21,8.3 µM (active)
20,CCNC(=O)Nc1ccc(-c2nc3c(c(N4CCOC[C@@H]4C)n2)CCN(c2ncccn2)C3)cc1,0.2 µM (active)
21,CCS(=O)(=O)N1CCc2ccc(NC(=O)Nc3cccc(Cl)c3)cc21,2.6 µM (active)
22,CC(=O)c1ccc(S(=O)(=O)Nc2cccc3cccnc23)cc1,3.5 µM (active)
23,COc1ccc(C[C@H]2NC[C@H](O)[C@H]2OC(C)=O)cc1 [ANISOMYCIN],0.3 µM (active)

row,SMILES,CC50
1,Cc1noc(C)c1C(=O)Nc1nc(-c2ccc(S(=O)(=O)N(C)C)cc2)cs1,11.3 µM (active)
2,C[C@@H]1C[C@@H]([C@H](O)CC2CC(=O)NC(=O)C2)C(=O)[C@@H](C)C1 [CYCLOHEXIMIDE],0.4 µM (active)
3,COc1ccc(OC)c(C(=O)Nc2nc3ccccc3[nH]2)c1,4.7 µM (active)
4,CNC(=O)c1cccc(-c2ccc3c(N4CCOC[C@@H]4C)nc(N4CCOC[C@@H]4C)nc3n2)c1 [VISTUSERTIB],0.2 µM (active)
5,Cc1ccc(-c2nc(C#N)c(S(=O)(=O)N(C)CCO)o2)cc1,7.3 µM (active)
6,CC(C)n1nc(-c2ccc3oc(N)nc3c2)c2c(N)ncnc21 [SAPANISERTIB],0.2 µM (active)
7,O=C(Nc1ccnn1-c1ccc(Br)cn1)c1ccccn1,23.7 µM (inactive)
8,c1ccc(Cn2c(-c3ccc(OC[C@H](C4CCNCC4)n4c(-c5ccccc5)nc5ccccc54)cc3)nc3ccccc32)cc1,1.6 µM (active)
9,Cc1occc1-c1cc(NC(=O)N2CCC[C@H]2c2cccn2C)no1,1.1 µM (active)
10,CN(Cc1ccccc1)C1=CC(=[N+]2CCCC2)CC(C)(C)C1,3.3 µM (active)
11,CC[C@@H]1C(=O)N(C)c2cnc(Nc3ccc(C(=O)NC4CCN(C)CC4)cc3OC)nc2N1C1CCCC1 [BI-2536],1.2 µM (active)
12,C#CC(=O)NCCNc1nc(C)nc(C)c1Br,0.8 µM (active)
13,Cc1cc(C)c(C(N)=O)c(SCC(=O)N(CCC#N)c2ccc3c(c2)OCCO3)n1,4.3 µM (active)
14,O=C(CN1C(=O)COc2ccc(Cl)cc21)N1CCC(c2c[nH]c3ncccc23)CC1,8.8 µM (active)
15,CNC(=O)c1nn(C)c2c1C(C)(C)Cc1cnc(Nc3ccc(N4CCN(C)CC4)cc3)nc1-2 [MILCICLIB],0.9 µM (active)
16,CNC(=O)c1ccc(Nc2ncc(C(F)(F)F)c(NCc3nccnc3N(C)S(C)(=O)=O)n2)cc1 [DEFACTINIB],1.4 µM (inactive)
17,O=C(Nc1ccc(I)cc1)c1ccc(CN2CCOCC2)cc1,7.7 µM (inactive)
18,Cc1cccc(C(=O)Nc2nc(-c3nccn3C)cs2)c1,4.7 µM (active)
19,O=C(Nc1ccc(O)cc1)c1cnn(Cc2ccccc2Cl)c1,8.4 µM (active)
20,CNc1c(Cl)ncnc1NCc1cccc(Cn2cccn2)c1,1.4 µM (active)
21,CCN(CC)c1cc(C)nc(Nc2ccc(NC(=O)C(C)C)cc2)n1,6.8 µM (active)
22,c1ccc2c(NCCCCCCNc3c4c(nc5ccccc35)CCCC4)c3c(nc2c1)CCCC3,1.2 µM (active)
23,CC(C)(C)c1nc(-c2cccc(NS(=O)(=O)c3c(F)cccc3F)c2F)c(-c2ccnc(N)n2)s1 [DABRAFENIB],3.1 µM (active)

row,SMILES,CC50
1,CC(=O)NCCc1ccc(C(=O)Cn2ncc(Cl)c(Cl)c2=O)s1,7.8 µM (active)
2,Cc1ccc(C)c(-n2sc3cc(F)ccc3c2=O)c1,6.5 µM (active)
3,O=C(c1c[nH]c(-c2ccccn2)c1)c1ccccc1O,12.6 µM (inactive)
4,O=C1COc2c(CCNCCN(C(=O)CCNCCc3ccc(Cl)c(Cl)c3)C3CCCCC3)ccc(O)c2N1,10.5 µM (active)
5,O=C(Nc1ccccn1)c1cccc(NS(=O)(=O)c2c[nH]c3ncccc23)c1,8.6 µM (active)
6,O=C(c1cccs1)c1no[n+]([O-])c1C(=O)c1cccs1,1.8 µM (active)
7,CC1CCC(C(C)C)C(OC(=O)Cn2c(-c3ccc(Br)cc3)[n+](C)c3ccccc32)C1 (stereo not given),4.7 µM (active)
8,N#CN=C(NCCCCCCOc1ccc(Cl)cc1)Nc1ccncc1 [CHS-828],0.1 µM (active)
9,O=C1NC(=O)C(c2cnc3ccccn23)=C1c1cn2c3c(cc(F)cc13)CN(C(=O)N1CCCCC1)CC2 [LY-2090314],9.5 µM (active)
10,CCOc1cccc(N2CCN(c3ncnc4c(F)cccc34)CC2)n1,8.3 µM (active)
11,O=C1CN2C(=C1c1nc3ccccc3s1)NC(=O)c1sccc12,3.7 µM (active)
12,Cc1ccc(NC(=O)Nc2ccc3c(c2)N(S(C)(=O)=O)CC3)cc1C,16.8 µM (inactive)
13,C[C@@H]1Oc2ccc(NC(=O)c3ccc(S(=O)(=O)NCc4ccco4)cc3)cc2NC1=O,6.8 µM (inactive)
14,O=C(Nc1cccc2cccnc12)c1cccc2cn[nH]c12,50 µM (inactive)
15,COc1cc(/C=C2\CCCN([C@@H](C)c3ccc(F)cc3)C2=O)ccc1-n1cnc(C)c1,12.8 µM (active)
16,CCOc1ccccc1NC(=O)c1cnc2sc(N3CCOCC3)nn2c1=O,15.6 µM (inactive)
17,Cc1nc(-c2ccccn2)[nH]c(=O)c1CC(=O)N(C)[C@H]1CCc2ccccc21,6.3 µM (active)
18,CCCS(=O)(=O)N1CCc2ccc(NC(=O)Nc3ccc(SC)cc3)cc21,18.2 µM (inactive)
19,CC1(C)N=C(N)N=C(N)N1c1cccc(Cl)c1,0.9 µM (active)
20,COc1cc2nc(N3CCN(C(=O)C4COc5ccccc5O4)CC3)nc(N)c2cc1OC (stereo not given) [DOXAZOSIN MESYLATE],13.5 µM (inactive)
21,CCN1C(=O)COc2ccc(NC(=O)c3cc(-c4ccc5c(c4)OCCO5)on3)cc21,50 µM (inactive)
